Assay results reported in patent US20230107642A1 (Erasca, Inc., priority 2020, published 2023).

test: Determination of total drug concentration in rat brain (BBB penetration); format: in vivo; conditions: male SD rat, 2 mg/kg IV infusion for 4 hours, brain collected at end of 4 hours
Experimental: BB. Example 9: Determination of Total Drug Concentration in Rat Brain
In Vivo Experimental Procedures
Infuse male SD rat at 2 mg/kg dose for 4 hours through IV administration route. Collect brain tissues at the end of 4 hours.
Sample Preparation Procedures
Dilute brain tissue by adding homogenization solvent (1:4, w/v). Homogenize diluted brain tissue samples. Extract analyte by adding organic solvent (1:4, v/v) with spiked internal standard. Vortex and centrifuge the samples. Remove supernatant and dilute with HPLC compatible solvent (1:3, v/v).
Inject diluted extract into LC-MS/MS system using reversed phase high performance liquid chromatography coupled with electrospray ionization and selected reaction monitoring. Determine the total drug concentration in brain samples by quantitating against the standard curve prepared using the same matrix.
The following data provides blood brain barrier (BBB) penetration activity for a selection of inventive compounds where were directly compared to sotorasib and adagrasib (concentration in brain measured in ng/g).
Compounds that were measured as having a total concentration in the brain of at least 60 ng/g are indicated as “+”.

Structure (SMILES)	BBB activity
C=CC(=O)N1[C@H](C)CN(c2nc(=O)n3c4c(c(-c5cc(Cl)c(F)cc5F)c(C(F)(F)F)cc24)SCC2(COC2)C3)C[C@@H]1C (atropisomer, axis not shown) [Example 13-44]	+ (Compounds that were measured as having a total concentration in the brain of at least 60 ng/g are indicated as “+”)
C=CC(=O)N1CCN(c2nc(=O)n3c4c(c(-c5ccc(F)cc5F)c(C(F)(F)F)cc24)SC[C@@H]3CC2CCOCC2)[C@@H](C)C1 [Example 13-88]	− (Compounds that did not meet this threshold are indicated as “−”)
C=CC(=O)N1CCN(c2nc(=O)n3c4c(c(-c5ccc(F)cc5F)c(Cl)cc24)SCC3)[C@@H](C)C1 [Example 13-43]	+ (Compounds that were measured as having a total concentration in the brain of at least 60 ng/g are indicated as “+”)
C=CC(=O)N1C[C@H](C)N(c2nc(=O)n3c4c(c(-c5cc(Cl)c(F)cc5F)c(C(F)(F)F)cc24)SC[C@@H]3CN2C[C@@H]3C[C@H]2CO3)C[C@H]1C (atropisomer, axis not shown) [Example 13-71]	− (Compounds that did not meet this threshold are indicated as “−”)
C=CC(=O)N1[C@H](C)CN(c2nc(=O)n3c4c(c(-c5ccc(F)c(Cl)c5)c(C(F)(F)F)cc24)SC[C@@H](OCC)C3)C[C@@H]1C [Example 13-82]	− (Compounds that did not meet this threshold are indicated as “−”)
C=CC(=O)N1C[C@H](C)N(c2nc(=O)n3c4c(c(-c5cc(Cl)c(F)cc5F)c(C(F)(F)F)cc24)SCC2(COC2)C3)C[C@H]1C [Example 13-31]	+ (Compounds that were measured as having a total concentration in the brain of at least 60 ng/g are indicated as “+”)
C=CC(=O)N1[C@H](C)CN(c2nc(=O)n3c4c(c(-c5ccc(F)cc5F)c(C(F)(F)F)cc24)SC[C@@H](OC)C3)C[C@@H]1C [Example 13-72]	− (Compounds that did not meet this threshold are indicated as “−”)
C=CC(=O)N1CCN(c2nc(=O)n3c4c(c(-c5ccc(F)cc5F)c(C(F)(F)F)cc24)SC[C@H](OC)C3)CC1 [Example 13-37]	+ (Compounds that were measured as having a total concentration in the brain of at least 60 ng/g are indicated as “+”)
C=CC(=O)N1[C@H](C)CN(c2nc(=O)n3c4c(c(-c5ccc(F)cc5)c(C(F)(F)F)cc24)SC[C@H](OCC)C3)C[C@@H]1C [Example 13-41]	+ (Compounds that were measured as having a total concentration in the brain of at least 60 ng/g are indicated as “+”)
C=CC(=O)N1C[C@H](C)N(c2nc(=O)n3c4c(c(-c5ccc(F)cc5F)c(C(F)(F)F)cc24)SC[C@@H]3CN2CCN(C3CC3)CC2)C[C@H]1C [Example 13-29]	+ (Compounds that were measured as having a total concentration in the brain of at least 60 ng/g are indicated as “+”)
C=CC(=O)N1[C@H](C)CN(c2nc(=O)n3c4c(c(-c5ccc(F)cc5F)c(C(F)(F)F)cc24)SC[C@@H]3COCOC)C[C@@H]1C (atropisomer, axis not shown) [Example 13-60]	− (Compounds that did not meet this threshold are indicated as “−”)
C=C(F)C(=O)N1[C@H](C)CN(c2nc(=O)n3c4c(c(-c5ccc(F)cc5)c(C(F)(F)F)cc24)SC[C@@H](OC)C3)C[C@@H]1C [Example 13-9]	+ (Compounds that were measured as having a total concentration in the brain of at least 60 ng/g are indicated as “+”)
C=CC(=O)N1[C@H](C)CN(c2nc(=O)n3c4c(c(-c5ccc(F)cc5)c(C(F)(F)F)cc24)SC[C@@H](OCOC)C3)C[C@@H]1C [Example 13-83]	− (Compounds that did not meet this threshold are indicated as “−”)
C=CC(=O)N1[C@H](C)CN(c2nc(=O)n3c4c(c(-c5ccc(F)cc5)c(C(F)(F)F)cc24)SC[C@@H]3COC)C[C@@H]1C [Example 13-10]	+ (Compounds that were measured as having a total concentration in the brain of at least 60 ng/g are indicated as “+”)
C=CC(=O)N1C[C@H](C)N(c2nc(=O)n3c4c(c(-c5ccc(F)cc5F)c(C(F)(F)F)cc24)SC[C@@H]3COC)C[C@H]1C (atropisomer, axis not shown) [Example 13-1]	+ (Compounds that were measured as having a total concentration in the brain of at least 60 ng/g are indicated as “+”)
C=CC(=O)N1[C@H](C)CN(c2nc(=O)n3c4c(c(-c5cc(Cl)c(F)cc5F)c(C(F)(F)F)cc24)SC[C@@H](OCC)C3)C[C@@H]1C (atropisomer, axis not shown) [Example 13-77]	− (Compounds that did not meet this threshold are indicated as “−”)
C=CC(=O)N1[C@H](C)CN(c2nc(=O)n3c4c(c(-c5cc(Br)c(F)cc5F)c(C(F)(F)F)cc24)SC[C@@H](OC)C3)C[C@@H]1C (atropisomer, axis not shown) [Example 13-70]	− (Compounds that did not meet this threshold are indicated as “−”)

Structure (SMILES)	BBB activity
C=CC(=O)N1C[C@H](C)N(c2nc(=O)n3c4c(c(-c5ccc(F)cc5F)c(Cl)cc24)OC[C@H]3CCCN2C[C@H]3C[C@@H]2CO3)C[C@H]1C [Example 13-76]	− (Compounds that did not meet this threshold are indicated as “−”)
C=CC(=O)N1CCN(c2nc(=O)n3c4c(c(-c5c(F)cc(F)c6ccccc56)c(Cl)cc24)SCC3)[C@@H](C)C1 [Example 13-67]	− (Compounds that did not meet this threshold are indicated as “−”)
C=CC(=O)N1CCN(c2nc(=O)n3c4c(c(-c5ccc(F)c(Cl)c5)c(C(F)(F)F)cc24)SC[C@@H](OC)C3)CC1 [Example 13-25]	+ (Compounds that were measured as having a total concentration in the brain of at least 60 ng/g are indicated as “+”)
C=CC(=O)N1CCN(c2nc(=O)n3c4c(c(-c5cc(Cl)c(F)cc5F)c(C(F)(F)F)cc24)SC[C@@H]3CN2CCN(C3CC3)CC2)CC1 [Example 13-30]	+ (Compounds that were measured as having a total concentration in the brain of at least 60 ng/g are indicated as “+”)
C=CC(=O)N1[C@H](C)CN(c2nc(=O)n3c4c(c(-c5ccc(F)cc5F)c(C(F)(F)F)cc24)SCC2(COC2)C3)C[C@@H]1C [Example 13-87]	− (Compounds that did not meet this threshold are indicated as “−”)
C=CC(=O)N1C[C@H](C)N(c2nc(=O)n3c4c(c(-c5ccc(F)cc5)c(C(F)(F)F)cc24)SCC2(COC2)C3)C[C@H]1C [Example 13-79]	− (Compounds that did not meet this threshold are indicated as “−”)
C=CC(=O)N1C[C@H](C)N(c2nc(=O)n3c4c(c(-c5cc(Cl)c(F)cc5F)c(C(F)(F)F)cc24)SCC2(CCOCC2)C3)C[C@H]1C [Example 13-34]	+ (Compounds that were measured as having a total concentration in the brain of at least 60 ng/g are indicated as “+”)
C=CC(=O)N1C[C@H](C)N(c2nc(=O)n3c4c(c(-c5ccc(F)cc5F)c(Cl)cc24)OCC3CN(C)C)C[C@H]1C (stereo partly shown) [Example 13-38]	+ (Compounds that were measured as having a total concentration in the brain of at least 60 ng/g are indicated as “+”)
C=CC(=O)N1CCN(c2nc(=O)n3c4c(c(-c5ccc(F)cc5F)c(C(F)(F)F)cc24)SCC3)[C@@H](C)C1 [Example 13-21]	+ (Compounds that were measured as having a total concentration in the brain of at least 60 ng/g are indicated as “+”)
C=CC(=O)N1[C@H](C)CN(c2nc(=O)n3c4c(c(-c5cc(Br)c(F)cc5F)c(C(F)(F)F)cc24)SC[C@@H]3COC)C[C@@H]1C (atropisomer, axis not shown) [Example 13-4]	+ (Compounds that were measured as having a total concentration in the brain of at least 60 ng/g are indicated as “+”)
C=CC(=O)N1C[C@H](C)N(c2nc(=O)n3c4c(c(-c5ccc(F)cc5F)c(Cl)cc24)OC[C@H]3CC2CCN(CC(F)F)CC2)C[C@H]1C [Example 13-59]	− (Compounds that did not meet this threshold are indicated as “−”)
C=CC(=O)N1[C@H](C)CN(c2nc(=O)n3c4c(c(-c5cc(Cl)c(F)cc5F)c(C(F)(F)F)cc24)SC[C@@H]3CN2C[C@@H]3C[C@H]2CO3)C[C@@H]1C [Example 13-46]	+ (Compounds that were measured as having a total concentration in the brain of at least 60 ng/g are indicated as “+”)
C=CC(=O)N1[C@H](C)CN(c2nc(=O)n3c4c(c(-c5ccc(F)cc5)c(C(F)(F)F)cc24)SC[C@@H]3CN2CCN(C3CC3)CC2)C[C@@H]1C [Example 13-22]	+ (Compounds that were measured as having a total concentration in the brain of at least 60 ng/g are indicated as “+”)
C=CC(=O)N1C[C@H](C)N(c2nc(=O)n3c4c(c(-c5cc(F)c(F)cc5F)c(C(F)(F)F)cc24)SC[C@@H]3CN2CCN(CC(F)F)CC2)C[C@H]1C [Example 13-57]	− (Compounds that did not meet this threshold are indicated as “−”)
C=CC(=O)N1[C@H](C)CN(c2nc(=O)n3c4c(c(-c5cc(I)c(F)cc5F)c(C(F)(F)F)cc24)SC[C@@H]3COC)C[C@@H]1C [Example 13-19]	+ (Compounds that were measured as having a total concentration in the brain of at least 60 ng/g are indicated as “+”)
C=CC(=O)N1C[C@H](C)N(c2nc(=O)n3c4c(c(-c5ccc(F)cc5F)c(Cl)cc24)OC[C@H]3CC2CCN(C)CC2)C[C@H]1C [Example 13-85]	− (Compounds that did not meet this threshold are indicated as “−”)
C=CC(=O)N1[C@H](C)CN(c2nc(=O)n3c4c(c(-c5cc(Cl)c(F)cc5F)c(C(F)(F)F)cc24)SC[C@@H](Nc2ncccn2)C3)C[C@@H]1C (atropisomer, axis not shown) [Example 13-73]	− (Compounds that did not meet this threshold are indicated as “−”)
